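Method: 48-hour compound exposure of cells in 96-well plates, five concentrations, linear interpolation of endpoints. Abbreviation: GI50, concentration required for 50% inhibition of growth. TGI is the concentration that stops growth completely.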
Tests used:
Test in all cases: inhibition of tumour cell growth, NCI panel, 48 h
[1] = tested on: OVCAR-5 ovarian
[2] = tested on: LOX IMVI melanoma
[3] = tested on: TK-10 renal
[4] = tested on: PC-3 prostate
[5] = tested on: BT-549 breast
[6] = tested on: HOP-62 NSCLC
[7] = tested on: RXF 393 renal
[8] = tested on: OVCAR-8 ovarian
[9] = tested on: UACC-257 melanoma
[10] = tested on: MCF7 breast
[11] = tested on: NCI-H23 lung
[12] = tested on: KM12 colon
[13] = tested on: SK-OV-3 ovarian
[14] = tested on: SNB-75 CNS
[15] = tested on: U251 CNS
[16] = tested on: SF-295 CNS
[17] = tested on: MDA-MB-468 breast
[18] = tested on: HCT-15 colon
[19] = tested on: A498 renal
[20] = tested on: SK-MEL-2 melanoma
[21] = tested on: CAKI-1 renal
[22] = tested on: EKVX NSCLC
[23] = tested on: M14 melanoma
[24] = tested on: ACHN renal
[25] = tested on: COLO 205 colon
[26] = tested on: RPMI-8226 leukemia
[27] = tested on: MDA-MB-231 breast
[28] = tested on: UO-31 renal
[29] = tested on: NCI-H226 lung

Cc1nc(Nc2ccccn2)sc1C(=O)CC(SCC(=O)Nc1ccc(Cl)cc1)c1ccccc1F (stereo not drawn)
GI50 [1]: 2.6 µM | TGI [1]: 6.89 µM | GI50 [2]: 2.31 µM | TGI [2]: 10.3 µM | GI50 [3]: 4.79 µM | TGI [3]: 16.8 µM | GI50 [4]: 4.04 µM | TGI [4]: 93.6 µM | GI50 [5]: 2.83 µM | TGI [5]: 9.85 µM | GI50 [6]: 2.79 µM | TGI [6]: 12.3 µM | GI50 [7]: 2.32 µM | TGI [7]: 8.73 µM | GI50 [8]: 2.31 µM | TGI [8]: 5.88 µM | GI50 [9]: 4.72 µM | TGI [9]: 19.4 µM | GI50 [10]: 1.25 µM | TGI [10]: 13.8 µM | GI50 [11]: 3.84 µM | TGI [11]: 15.7 µM | GI50 [12]: 1.39 µM | TGI [12]: 8.67 µM | GI50 [13]: 3.63 µM | TGI [13]: 29.2 µM | GI50 [14]: 1.42 µM | TGI [14]: 6.22 µM | GI50 [15]: 2.22 µM | TGI [15]: 6.41 µM | GI50 [16]: 2.77 µM | TGI [16]: 12.3 µM | GI50 [17]: 1.58 µM | TGI [17]: 5.05 µM | GI50 [18]: 1.8 µM | TGI [18]: 11.2 µM | GI50 [19]: 12.7 µM | TGI [19]: 35.7 µM | GI50 [20]: 2.03 µM | TGI [20]: 4.74 µM | GI50 [21]: 2.71 µM | TGI [21]: 16.9 µM | GI50 [22]: 3.15 µM | TGI [22]: 13.4 µM | GI50 [23]: 1.69 µM | TGI [23]: 4.02 µM | GI50 [24]: 3.9 µM | TGI [24]: 14.8 µM | GI50 [25]: 2.18 µM | TGI [25]: 4.67 µM | GI50 [26]: 3.33 µM | TGI [26]: 72.1 µM | GI50 [27]: 2.64 µM | TGI [27]: 7.86 µM | GI50 [28]: 3.44 µM | TGI [28]: 16.4 µM | GI50 [29]: 7.91 µM | TGI [29]: 31.2 µM

Reference: PubChem BioAssay (NCI)
